Test results as given in patent publication US11090304B2 (Amgen Inc., priority 2018, dated 2021).
Like-named read-outs stand apart in the source and are kept apart here.

Legend:
[1] = system: Phosphorylation of ERK1/2 in MIA PaCa-2 cells; assay: Phospho-ERK1/2 MSD assay in MIA PaCa-2 cells; format: cell-based; conditions: read-out: p-ERK IC50 (2 h; MIA PaCa-2), 2 h compound treatment
Method in brief: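 MSD electrochemiluminescence readout of phospho-ERK1/2 in whole-cell lysates, IC50 by 4-parameter logistic fit. Compound titrations were applied for 2 or 4 h at 37 °C, 5% CO2, followed by 10 ng/mL EGF stimulation for 10 min before lysis.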

[2] = target: GDP-bound KRAS protein (aa 1-169), containing both G12C and C118A amino acid substitutions (Homo sapiens, UniProt P01116, C118A/G12C); assay: Coupled nucleotide exchange assay (SOS-mediated, AlphaScreen); format: biochemical; conditions: 5 min compound pre-incubation
Sequence of GDP-bound KRAS protein (aa 1-169), containing both G12C and C118A amino acid substitutions (P01116 1-169 isoform P01116-2 G12C/C118A): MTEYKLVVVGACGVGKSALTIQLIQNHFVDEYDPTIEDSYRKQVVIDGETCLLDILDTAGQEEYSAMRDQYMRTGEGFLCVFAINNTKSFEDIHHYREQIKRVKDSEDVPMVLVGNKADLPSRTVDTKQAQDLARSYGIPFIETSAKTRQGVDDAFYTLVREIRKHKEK

SMILES	IC50 [1] [µM]	Coupled exchange IC50 (5 min) [2]	IC50 ([1]; Homo sapiens, MIA PaCa-2, 2 h) [µM]	IC50 ([1]; Homo sapiens) [µM]
C=CC(=O)N1CCN(c2nc(=O)n(-c3c(C)ccnc3C(C)C)c3nc(-c4ccccc4F)c(F)cc23)[C@@H](C)C1 (single isomer, unassigned) [Example 58-4-1]		0.212 | nda μM	0.114	
C=CC(=O)N1CCN(c2nc(=O)n(-c3c(C)ccnc3C(C)C)c3nc(-c4cc(O)cc(Cl)c4Cl)c(F)cc23)[C@@H](C)C1 (single isomer, unassigned) [Example 58-7-1]	1.84	0.335 | nda μM		
C=CC(=O)N1CCN(c2nc(=O)n(-c3c(C)ccnc3C(C)C)c3nc(-c4cc(O)cc(Cl)c4Cl)c(F)cc23)[C@@H](C)C1 (single isomer, unassigned) [Example 58-7-2]	0.515	0.041 | nda μM		
C=CC(=O)N1CCN(c2nc(=O)n(-c3c(C)ccnc3C(C)C)c3nc(-c4c(O)cccc4Cl)c(F)cc23)[C@@H](C)C1 (single isomer, unassigned) [Example 58-9-2]	0.326	0.349 | nda μM		
C=CC(=O)N1CCN(c2nc(=O)n(-c3c(C)ccnc3C(C)C)c3nc(-c4ccc(F)cc4F)c(F)cc23)[C@@H](C)C1 (single isomer, unassigned) [Example 58-10-1]		0.264 | nda μM	0.257	
C=CC(=O)N1CCN(c2nc(=O)n(-c3ccccc3C(C)(C)C)c3nc(-c4ccccc4F)c(F)cc23)[C@@H](C)C1 (single isomer, unassigned) [Example 58-17-2]		0.849 | nda μM	0.672	
C=CC(=O)N1CCN(c2nc(=O)n(-c3c(F)cccc3C(C)C)c3nc(-c4ccccc4F)c(F)cc23)[C@@H](C)C1 (single isomer, unassigned) [Example 59-3-1]		0.128 | nda μM	0.343	
C=CC(=O)N1CCN(c2nc(=O)n(-c3c(C)ncnc3C3CC3)c3nc(-c4ccccc4F)c(Cl)cc23)[C@@H](C)C1 (single isomer, unassigned) [Example 60-30-2]		0.108 | nda μM	0.081	
C=CC(=O)N1C[C@H](C)N(c2nc(=O)n(-c3c(C)cccc3C(C)C)c3nc(-c4c(O)cccc4F)c(F)cc23)[C@@H](C)C1 (single isomer, unassigned) [Example 63-3]		0.059 | nda μM	0.108	
C=CC(=O)N1CCN(c2nc(=O)n(-c3c(C)cccc3C(C)C)c3nc(-c4c(C)ccc5[nH]ncc45)c(F)cc23)[C@@H](C)C1 (single isomer, unassigned) [Example 68-2-2]		0.31 | nda μM	0.607	
C=CC(=O)N1CCN(c2nc(=O)n(-c3c(C)cccc3C(C)C)c3nc(-c4nc(N)ccc4Cl)c(F)cc23)[C@@H](C)C1 (single isomer, unassigned) [Example 71-1-1]		0.49 | nda μM	0.725	
C=CC(=O)N1CCN(c2nc(=O)n(-c3c(C)ccnc3C(C)C)c3nc(-c4ccccc4F)c(C)cc23)[C@@H](C)C1 (single isomer, unassigned) [Example 74-2-2]	1.04	2.325 | nda μM		
C=CC(=O)N1CCN(c2nc(=O)n(-c3c(C)ccnc3C(C)C)c3nc(-c4c(O)cccc4F)c(C)cc23)[C@@H](C)C1 (single isomer, unassigned) [Example 74-3-1]		0.05 | nda μM	0.103	
C=CC(=O)N1CCN(c2nc(=O)n(-c3c(C)ccnc3C(C)C)c3nc(-c4c(O)cccc4F)c(F)cc23)[C@@H](C(F)F)C1 (single isomer, unassigned) [Example 75-9-2, (M)-4-((2S or 2R)-2-(difluoromethyl)-4-(2-propenoyl)-1-piperazinyl)-6-fluoro-7-(2-fluoro-6-hydroxyphenyl)-1-(4-methyl-2-(2-propanyl)-3-pyridinyl)pyrido[2,3-d]pyrimidin-2(1H)-one]		0.136 | nda μM		0.113

Continued, in another order:

IC50 [1] [µM]	Coupled exchange IC50 (5 min) [2]	IC50 ([1]; Homo sapiens, MIA PaCa-2, 2 h) [µM]	SMILES	IC50 ([1]; Homo sapiens) [µM]
0.867	0.485 | nda μM		C=CC(=O)N1CCN(c2nc(=O)n(-c3c(C(F)(F)F)ccnc3C(C)C)c3nc(-c4c(O)cccc4F)c(F)cc23)[C@@H](C)C1 (single isomer, unassigned) [Example 58-3-2]	
	0.216 | nda μM	0.743	C=CC(=O)N1CCN(c2nc(=O)n(-c3c(C)ccnc3C(C)C)c3nc(-c4cc(O)ccc4F)c(F)cc23)[C@@H](C)C1 (single isomer, unassigned) [Example 58-5-2]	
	0.236 | nda μM	0.367	C=CC(=O)N1CCN(c2nc(=O)n(-c3c(C)ccnc3C(C)C)c3nc(-c4cc(N)ccc4F)c(F)cc23)[C@@H](C)C1 (single isomer, unassigned) [Example 58-6-2]	
	0.213 | nda μM	0.18	C=CC(=O)N1CCN(c2nc(=O)n(-c3c(C)ccnc3C(C)C)c3nc(-c4cc(N)ccc4Cl)c(F)cc23)[C@@H](C)C1 (single isomer, unassigned) [Example 58-8-1]	
0.047	0.046 | nda μM		C=CC(=O)N1CCN(c2nc(=O)n(-c3c(C)ccnc3C(C)C)c3nc(-c4c(O)cccc4Cl)c(F)cc23)[C@@H](C)C1 (single isomer, unassigned) [Example 58-9-1]	
	0.26 | nda μM	0.371	C=CC(=O)N1CCN(c2nc(=O)n(-c3c(C)cccc3C3CC3)c3nc(-c4c(O)cccc4F)c(F)cc23)[C@@H](C)C1 (single isomer, unassigned) [Example 58-13-2]	
	0.315 | nda μM	0.317	C=CC(=O)N1CCN(c2nc(=O)n(-c3c(C(C)C)ccnc3C)c3nc(-c4ccccc4F)c(F)cc23)[C@@H](C)C1 (single isomer, unassigned) [Example 58-16-2]	
	0.226 | nda μM	0.525	C=CC(=O)N1CCN(c2nc(=O)n(-c3c(C4CC4)ccnc3C)c3nc(-c4c(O)cccc4F)c(F)cc23)[C@@H](C)C1 (single isomer, unassigned) [Example 58-19-2]	
	0.807 | nda μM	0.41	C=CC(=O)N1CCN(c2nc(=O)n(-c3c(C4CC4)ccnc3C)c3nc(-c4ccccc4F)c(F)cc23)[C@@H](C)C1 (single isomer, unassigned) [Example 58-20-2]	
	0.112 | nda μM	0.137	C=CC(=O)N1CCN(c2nc(=O)n(-c3c(F)cccc3C(C)C)c3nc(-c4c(O)cccc4F)c(F)cc23)[C@@H](C)C1 (single isomer, unassigned) [Example 59-2-1]	
	0.024 | nda μM	0.033	C=CC(=O)N1CCN(c2nc(=O)n(-c3c(C#N)cccc3C(C)C)c3nc(-c4ccccc4F)c(Cl)cc23)[C@@H](C)C1 (single isomer, unassigned) [Example 60-20-2]	
	0.311 | nda μM	0.609	C=CC(=O)N1CCN(c2nc(=O)n(-c3c(C)cccc3C(C)C)c3nc(-c4c(O)cccc4F)c(F)cc23)C[C@H]1C (single isomer, unassigned) [Example 63-2]	
	0.151 | nda μM	0.258	C=CC(=O)N1CCN(c2nc(=O)n(-c3c(C)cccc3C(C)C)c3nc(-c4cc(F)c(F)cc4O)c(Cl)cc23)[C@@H](C)C1 (single isomer, unassigned) [Example 64-2]	
	0.189 | nda μM	0.219	C=CC(=O)N1CCN(c2nc(=O)n(-c3c(C)cccc3C(C)C)c3nc(-c4cccc(F)c4O)c(Cl)cc23)[C@@H](C)C1 (single isomer, unassigned) [Example 64-3]	
0.128	0.084 | nda μM		C=CC(=O)N1CCN(c2nc(=O)n(-c3c(C)cccc3C(C)C)c3nc(-c4c(O)cccc4Cl)c(F)cc23)[C@@H](C)C1 (single isomer, unassigned) [Example 68-1-1]	
0.735	0.613 | nda μM		C=CC(=O)N1CCN(c2nc(=O)n(-c3c(C)cccc3C(C)C)c3nc(-c4c(O)cccc4Cl)c(F)cc23)[C@@H](C)C1 (single isomer, unassigned) [Example 68-1-2]	
	0.118 | nda μM	0.152	C=CC(=O)N1CCN(c2nc(=O)n(-c3ccccc3C(C)C)c3nc(-c4ccccc4F)c(C)cc23)[C@@H](C)C1 (single isomer, unassigned) [Example 74-1-2]	
0.136	0.26 | nda μM		C=CC(=O)N1CCN(c2nc(=O)n(-c3c(C)ccnc3C(C)C)c3nc(-c4ccccc4F)c(C)cc23)[C@@H](C)C1 (single isomer, unassigned) [Example 74-2-1]	
	0.493 | nda μM	0.306	C=CC(=O)N1CCN(c2nc(=O)n(-c3c(C)ccnc3C(C)C)c3nc(-c4c(O)cccc4F)c(F)cc23)C[C@H]1C (single isomer, unassigned) [Example 75-2]	
	0.552 | nda μM	0.543	C=CC(=O)N1CCN(c2nc(=O)n(-c3c(C)ccnc3C(C)C)c3nc(-c4c(O)cccc4F)c(F)cc23)CC1 (single isomer, unassigned) [Example 75-4, (M)-6-fluoro-7-(2-fluoro-6-hydroxyphenyl)-1-(4-methyl-2-(2-propanyl)-3-pyridinyl)-4-(4-(2-propenoyl)-1-piperazinyl)pyrido[2,3-d]pyrimidin-2(1H)-one]	
	0.023 | nda μM	0.038	C=CC(=O)N1C[C@@H](C)N(c2nc(=O)n(-c3c(C)ccnc3C(C)C)c3nc(-c4c(N)cccc4F)c(F)cc23)[C@@H](C)C1 (single isomer, unassigned) [Example 75-8]	
